Assay results: US20250090498A1, “TREATMENT OF PRIMARY CTLA-4 CHECKPOINT RELATED IMMUNODEFICIENCIES” (ADIENNE PHARMA & BIOTECH SA, priority 2023, published 2025)
“Also recorded” adds a separate entry of the source.

Key:
Type in all cases: in vivo
[1] = system: DSS+anti-CTLA-4-induced colitis; assay: DSS+anti-CTLA-4-induced colitis in C57BL/6 mice; settings: for lymphocytic infiltration, dose dependence: 0.09-0.045-0.022 mg/mouse (4.5, 2.25 and 1.12 mg/kg), lung, spleen, liver, kidney; for efficacy dose: intragastrically every other day, Eudragit formulations
Experimental: In trials, C57BL/6 mice received dextran sulfate sodium (DSS) (3%) in their drinking water and 100 μg anti-CTLA-4 monoclonal antibody (mAb) or isotype control antibody intraperitoneally, at days 0, 4 and 8 following the DSS administration as indicated in FIG. 2A. DSS is a water soluble, negatively charged sulfated polysaccharide with a highly variable molecular weight ranging from 5 to 1400 kDa. […] Eudragit-formulated 3-IAld (Puccetti et al, 2018) was given at 18 mg/kg 3-IAld intragastrically every other day, as illustrated in FIG. 2A. Animals were monitored daily for appearance of diarrhea, fecal blood, loss of body weight and survival. A week after DSS treatment (14 days after initiation of treatment), at the time at which the model recapitulates the human disease (Manicassamy et al, 2014), surviving mice were sacrificed, and the colon was excised and evaluated for macroscopic damage and local immune parameters.
In trials, C57BL/6 mice received dextran sulfate sodium (DSS) (3%) in their drinking water and 100 μg anti-CTLA-4 monoclonal antibody (mAb) or isotype control antibody intraperitoneally, at days 0, 4 and 8 following the DSS administration as indicated in FIG. 17A. Eudragit-formulated 1-methylindole-3-carboxylic acid was given intragastrically every other day, at scaling doses of 0.09, 0.18, or 0.36 mg/mouse (FIG. 17A). Animals were monitored daily for the appearance of diarrhea, fecal blood and loss of body weight. A week after DSS treatment (14 days after initiation of treatment), at the time at which the murine model recapitulates the human disease (Manicassamy et al, 2014), surviving mice were sacrificed and the colon was excised and evaluated for macroscopic damage and local immune parameters. […] CTLA-4 haploinsufficiency typically presents with extensive CD3+T cell infiltration across different organs (Kuehn et al, 2014—Schubert et al, 2014—Schwab et al, 2018).
In the DSS+anti-CTLA-4-induced colitis, mice were treated intragastrically (Eudragit formulations) every other day starting 4 days before DSS treatment and continuing until mice sacrifice. Mice were evaluated for disease activity in terms of histopathology, parameters of barrier permeability function and intestinal inflammation.
Assessment of scaling doses of 0.09-0.045-0.022 mg/mouse (corresponding to 4.5, 2.25 and 1.12 mg/kg) in the murine model of immune-mediated colitis (DSS+anti-CTLA-4) was performed as shown in Table 2 below.
C57BL/6 mice were treated with DSS in drinking water for 1 week followed by a recovery period of another week and administered […] of anti-CTLA-4 mAb and 1ME3CA as depicted in the experimental schedule in FIG. 23A. Mice were evaluated for weight change (FIG. 23B), disease activity index (FIG. 23C), clinical morbidity and rectal bleeding (FIG. 23D), colon and ileum histology (FIG. 23E) (PAS staining), ×40 magnification (scale bars, 100 m). Each in vivo experiment includes four to six mice per group (20 mice in each experiment).
Photographs were taken with a high-resolution microscope, lung and spleen ×10 magnification (scale bars, 400 m) and liver and kidney ×20 magnification (scale bars, 200 m).

[2] = preliminary pharmacokinetics in serum after Eudragit-formulated 3-IAld (90% 3-IAld/10% 13C8-labeled 3-IAld), mass spectrometry
Experimental: Primary pharmacodynamics studies have been performed. The mode of action of 3-IAld occurs upon binding to AhR, both in vitro and in vivo. In vitro, 3-IAld induced luciferase activity in the H1L1.1c2 cell line containing a stably-transfected AhR-responsive firefly luciferase at the dose range […] (Zelante et al, 2013). […] Preliminary pharmacokinetics data have been obtained by administration of Eudragit-formulated 3-IAld in the composition 90% 3-IAld/10% 13C8-labeled 3-IAld and targeted/untargeted analysis by mass spectrometry in serum at different times (30 minutes (min), 1 hour (h), 2 h, 4.5h, 6 h, 24h). […] The presence of indole-3-formic acid was also confirmed with labelled 3-IAld (FIG. 13E), showing a similar kinetics and a peak level of about 25 μM at 30 min.

[3] = toxicology, up to 3 weeks, PAS tissue pathology in C57BL/6 mice; settings: 0.36-0.18-0.09 mg/mouse intragastrically, enteric microparticles
Experimental: For assess toxicology, C57BL/6 mice received intragastrically escalating doses of 0.36-0.18-0.09 mg/mouse of 3-IAld or 1ME3CA formulated in enteric microparticles for up to 3 weeks as shown in Table 3 below. At the end of treatment, mice were sacrificed, and tissue pathology blindly examined on different organs after PAS staining of different section from each organ. Sections of organs from 4 mice in each group were separately evaluated.

[4] = 1-methylindole-3-carboxylic acid
[5] = 1-methylindole-3-carboxylic acid 0.09, 0.18 or 0.36 mg/mouse every other day
[6] = 1-methylindole-3-carboxylic acid 0.09-0.36 mg/mouse
[7] = 3-IAld 18 mg/kg, colon homogenates
[8] = 3-IAld 18 mg/kg, surviving mice, 14 days
[9] = Eudragit-formulated 3-IAld 18 mg/kg intragastrically every other day

Cn1cc(C(=O)O)c2ccccc21 [1-methylindole-3-carboxylic acid, 1-Methyl-1H-indole-3-carboxylic acid]
inflammatory pathology, dose dependence ([1]; 0.09-0.045-0.022 mg/mouse): protects from inflammatory pathology | lymphocytic infiltration, dose dependence ([1]; listed as 1ME3CA): reduces lymphocytic infiltration in anti-CTLA-4-treated mice in a dose-dependent manner | lymphocytic infiltration, dose dependence ([1]; listed as MECA): reduces lymphocytic infiltration | Il1b expression in the colon [1, 4]: reduced levels | Il10 expression in the colon [1, 4]: increased levels | anti-inflammatory state and AhR activation [1, 4]: promotes an anti-inflammatory state and AhR activation | clinical morbidity and rectal bleeding [1, 5]: protected | disease activity index [1, 5]: decreased | CD3+ T cell (lymphocytic) infiltration in the lung [1, 6]: effective in reducing; also recorded: reduces lymphocytic infiltration | CD3+ T cell infiltration in the ileum and colon [1, 6]: significantly reduced | gut inflammatory pathology (overall) [1, 6]: prevent gut inflammatory pathology; also recorded: protects from inflammatory pathology | normal architectural structure of the colon and ileum [1, 6]: recovery | epithelial barrier function (expression of ZO-1) ([1]; 1-methylindole-3-carboxylic acid 0.09-0.36 mg/mouse, colon and ileum): maintenance | expression of the AhR-dependent genes Cyp1a1, the antimicrobial peptide Reg3g, and 1122 ([1]; 1-methylindole-3-carboxylic acid, listed as 1-Methylindole-3-Carboxylic Acid): Potent Activator | expression of the AhR-dependent genes Cyp1a1, the antimicrobial peptide Reg3g, and 1122 ([1]; 1-methylindole-3-carboxylic acid, listed as 1-methylindole-3-carboxylic): induced the expression | body weight loss ([1]; Eudragit-formulated 1-methylindole-3-carboxylic acid 0.09, 0.18 or 0.36 mg/mouse intragastrically every other day): significant attenuation | effects at each administered dose ([1]; each dose including 0.09 mg/mouse): Positive effects | efficacy dose [1]: 2.25 mg/kg | time of peak levels as metabolite of 3-IAld ([2]; same kinetics as indole-3-formic acid): 30 min | tissue pathology in different organs (PAS) [3]: absence of visible tissue pathology

O=Cc1c[nH]c2ccccc12 [3-IAld, 1H-indole-3-carbaldehyde]
anti-inflammatory state ([1]; 3-IAld 18 mg/kg): promotes an anti-inflammatory state | epithelial barrier integrity ([1]; 3-IAld 18 mg/kg): provides epithelial barrier integrity | expression of IL-22 (gene and protein) ([1]; 3-IAld 18 mg/kg): induced expression | expression of Lgr5, Nfil3 and Muc1 ([1]; 3-IAld 18 mg/kg): promoted the expression | expression of the AhR-dependent genes Cyp1a1 and Ahrr ([1]; 3-IAld 18 mg/kg): induced expression | expression of the antimicrobial peptide Reg37 ([1]; 3-IAld 18 mg/kg): induced expression | gut inflammatory pathology (overall) ([1]; 3-IAld 18 mg/kg intragastrically every other day): prevent gut inflammatory pathology; also recorded: protects from inflammatory pathology | amounts of IL-10 [1, 7]: increased amounts | levels of TNF-α, IL-10 and IL-17A [1, 7]: reduced levels | levels of calprotectin [1, 7]: reduced | passage of dextran-FITC across the intestinal barrier ([1]; 3-IAld 18 mg/kg, serum): reduced | epithelial barrier function (expression of ZO-1) [1, 8]: recovery | epithelial cell proliferation and renewal (Ki-67 staining) [1, 8]: recovery | gross pathology [1, 8]: improved | normal architecture structure of the colon [1, 8]: recovery | body weight [1, 9]: increased | disease activity index [1, 9]: decreased | survival [1, 9]: increased | efficacy dose [1]: 18 mg/kg | labelled 3-IAld serum level at 2 h ([2]; in vivo): sharply reduced levels | metabolic conversion ([2]; in vivo): rapid metabolic conversion | time of peak of labelled 3-IAld in serum ([2]; in vivo): 30 to 60 min | tissue pathology in different organs (PAS) [3]: absence of visible tissue pathology
